The numbers were not newly measured in article PMC11258229 (Scientific Reports, 2024), which cites them from elsewhere.

The conditions of data set [1]: high permeability and low solubility.

In the case of `CC[C@@H]([C@H](C)O)n1ncn(-c2ccc(N3CCN(c4ccc(OC[C@@H]5CO[C@@](Cn6cncn6)(c6ccc(F)cc6F)C5)cc4)CC3)cc2)c1=O` [Posaconazole], the “half-life (T1/2)” value was “twenty to sixty six”; the “mean T1/2” value was “thirty five”; the “renal clearance, share of the total conjugate oral dosage” value is “around 13%”. Also, the “biopharmaceutical classification system category” value in data set [1] was “class II”.
